Laboratory results from publication PMC4222444, “Characterization of Plp, a phosphatidylcholine-specific phospholipase and hemolysin of Vibrio anguillarum” (BMC Microbiology, 2013).

Molecular target: rPlp (Plp) (Vibrio anguillarum, UniProt Q4ZHV5)
Assay: TLC with fluorescence scanning of BODIPY-lysophosphatidylcholine formation
Format: biochemical
Conditions: 20 uM substrate stock mixed 1:1 with enzyme; rPlp routinely 4 ug/ml; no divalent metal needed; labelled compound

rPlp (Plp), sequence (Q4ZHV5 1-416 limits assumed): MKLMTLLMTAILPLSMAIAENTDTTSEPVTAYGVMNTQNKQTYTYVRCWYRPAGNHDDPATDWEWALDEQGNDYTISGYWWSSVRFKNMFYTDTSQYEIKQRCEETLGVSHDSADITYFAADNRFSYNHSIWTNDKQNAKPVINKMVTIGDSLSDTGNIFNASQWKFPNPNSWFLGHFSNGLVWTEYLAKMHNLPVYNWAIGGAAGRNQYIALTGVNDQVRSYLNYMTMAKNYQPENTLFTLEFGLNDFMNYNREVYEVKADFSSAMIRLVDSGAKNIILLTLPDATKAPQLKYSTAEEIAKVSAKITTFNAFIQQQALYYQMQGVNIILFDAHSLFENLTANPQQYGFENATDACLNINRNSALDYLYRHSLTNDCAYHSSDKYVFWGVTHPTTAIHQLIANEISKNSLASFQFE

SMILES: CCCCCCCCCC(=O)O[C@H](COCCCCCCCCCCCNC(=O)CCc1ccc2n1[B-](F)(F)[N+]1=C(C)C=C(C)C1=C2)COP(=O)([O-])OCC[N+](C)(C)C [BPC, 2-decanoyl-1-(O-(11-(4,4-difluoro-5,7-dimethyl-4-bora-3a,4a-diaza-s-indacene-3-propionyl)amino)undecyl)-sn-glycero-3-phosphocholine]
- TLC with fluorescence scanning of BODIPY-lysophosphatidylcholine formation: rPlp exhibited high activity against phosphatidylcholine, cleaving BPC to yield BLPC and free fatty acid
